Data set [1] deals with MV522 Target Cell Line (lung-derived adenocarcinoma). The experiment in a line: cells. Particulars: MV522, 2 h, read-out: Mean IC50 value.
The subject of data set [2] is 8392B Nontarget Cell Line (hematopoietic). The experiment in a line: cells. Particulars: 48 h, read-out: Mean IC50 value.
Data set [3] deals with MV522 Target Cell Line (lung-derived adenocarcinoma). The experiment in a line: cells. To be noted: MV522, 48 h, read-out: Mean IC50 value.
The next data set has as its system NCI 60 cell line panel. The data set is described as follows: NCI DTP 60 cell line screen assay. To be noted: for Activity Value: NCI 60 cell line screen, negative = lyse tumor cells, zero = no growth, positive = slower growth. An excerpt: An ADC is engulfed by a tumor cell, transported to the endosomes (pH<6.0) and then into the lysozomes (pH<4). […] 4). Cancer cells can become resistant to various toxins and drugs through the development of what is termed multi-drug resistance. This process is known to occur through several different mechanisms.

The test system of data set [4] is 8392B Nontarget Cell Line (hematopoietic). The experiment in a line: cells. Particulars: 2 h, read-out: Mean IC50 value, 8392B Nontarget Cell Line, 2 hr exposure, ± SD, N = 3 unless otherwise indicated.

Read-outs that look alike come from different tables or passages of the source. Where a SMILES comes first, the peptide text is derived from it. [ ]: non-standard residue; d: D form. The star is where a group is joined. X4 = CC1=C(C*)C2=C(C)C3(CC3)[C@@](C)(O)C(=O)C2=C1 A value given as a limit tells only on which side of the number the result lay.

A word on the IC50: it is the concentration needed to halve the response being measured. Turning to `CC1=CC2=C(C)C3(CC3)[C@@](C)(O)C(=O)C2=C1` [Analog 001], the IC50 was 2.2 ± 0.1 µM in data set [1], 0.83 ± 0.1 µM in data set [2] and 0.35 ± 0.02 µM in data set [3].
`CC1=C(CO)C2=C(C)C3(CC3)[C@@](C)(O)C(=O)C2=C1` [Analog 002]: in the data set on NCI 60 cell line panel, the “MDR Activity” value is on record as “Yes”. Further, in the data set with NCI 60 cell line panel (ability to actually kill tumor cells versus only inhibiting growth), the Cytotoxicity entry was “Yes”.
As for `CC(=O)OCOCC1=C(C)C=C2C(=O)[C@](C)(O)C3(CC3)C(C)=C21` [Analog 008], the IC50 in data set [1] was 0.87 ± 0.09 µM; in data set [2] it was 15.1 ± 2.2 µM; in data set [3], 0.63 ± 0.08 µM.
Regarding `CC1=C(CCCO)C2=C(C)C3(CC3)[C@@](C)(O)C(=O)C2=C1` [Analog 009], the IC50 in data set [4] came to 47.1 ± 11 µM; in data set [2] it was 43.2 ± 2.3 µM.
`CC1=C(CCC=O)C2=C(C)C3(CC3)[C@@](C)(O)C(=O)C2=C1` [Analog 010]: the IC50 is 29.4 ± 1.6 µM in data set [4] and 14.5 ± 1.7 µM in data set [2].
In the case of `CC1=C(C=O)C2=C(C)C3(CC3)[C@@](C)(O)C(=O)C2=C1` [Analog 011], the IC50 in data set [4] was > 100 µM; in data set [1], 4.9 ± 0.9 µM; in data set [2], 40.4 ± 6.7 µM.
In the case of `CC1=C([N+](=O)[O-])C2=C(C)C3(CC3)[C@@](C)(O)C(=O)C2=C1` [Analog 012], the IC50 in data set [4] came to 42.2 ± 5 µM; in data set [1], 5.15 ± 1.35 µM; in data set [2] it was 18.8 ± 2.8 µM; in data set [3], 0.32 ± 0.09 µM.
Regarding `CCOCC1=C(C)C=C2C(=O)[C@](C)(O)C3(CC3)C(C)=C21` [Analog 016], the IC50 was > 100 µM in data set [4], 0.49 ± 0.13 µM in data set [1] and 0.87 ± 0.06 µM in data set [2].
On to `CC(=O)N[C@@H](CSCC1=C(C)C=C2C(=O)[C@](C)(O)C3(CC3)C(C)=C21)C(=O)N[C@@H](Cc1ccccc1)C(=O)NCC(=O)N[C@H](C=O)CC(C)C` [Analog 083] (Ac-C(X4)FGL-aldehyde), for which the IC50 in data set [2] is > 42 µM; in data set [3] it was 37.2 ± 2.9 µM.
For `CC(=O)N[C@@H](CSCC1=C(C)C=C2C(=O)[C@](C)(O)C3(CC3)C(C)=C21)C(=O)N[C@@H](CC(C)C)C(=O)NCC(=O)N[C@@H](C=O)Cc1ccccc1` [Analog 084] (Ac-C(X4)LG[dF]-aldehyde), the IC50 in data set [2] is > 42 µM; in data set [3] it was 28.2 ± 1.4 µM.
On to `CC(=O)O[C@@]1(C)C(=O)C2=CC(CO)=CC2=C(C)C12CC2` [Analog 090], for which the IC50 was 1.6 ± 0.2 µM in data set [4], 2.5 ± 0.4 µM in data set [1], 3.8 ± 0.3 µM in data set [2] and 2.9 ± 0.4 µM in data set [3].
In the case of `CC(=O)OCCCC1=C(C)C=C2C(=O)[C@](C)(O)C3(CC3)C(C)=C21` [Analog 094], the IC50 in data set [4] was 9 ± 1.7 µM; in data set [1], 0.8 ± 0.1 µM; in data set [2] it was 0.11 ± 0.01 µM.
Turning to `CC1=C(CSc2nccn2C)C2=C(C)C3(CC3)[C@@](C)(O)C(=O)C2=C1` [Analog 096], the IC50 in data set [4] is > 88 µM; in data set [2] it was > 3 µM; in data set [3] it was 6.2 ± 0.6 µM.
For `CC1=C(CSC[C@@H](C)C(=O)N2CCC[C@H]2C(=O)O)C2=C(C)C3(CC3)[C@@](C)(O)C(=O)C2=C1` [Analog 098], the IC50 in data set [4] was > 65 µM; in data set [1] it was 18.8 ± 2.5 µM; in data set [2] it was 11.7 ± 1.8 µM; in data set [3], 4.6 ± 0.25 µM.
For `CC1=C(CCC(=O)OC2CCC3(C)C(CCC4C3CC[C@]3(C)C(=O)CCC43)C2)C2=C(C)C3(CC3)[C@@](C)(O)C(=O)C2=C1` (some centres unmarked) [Analog 112], the IC50 in data set [4] was determined as 14.9 ± 0.1 µM; in data set [2] it was 5.2 ± 0.3 µM.
As to `C=CCCC1=C(C)C=C2C(=O)[C@](C)(O)C3(CC3)C(C)=C21` [Analog 113], the IC50 in data set [4] is > 93 µM; in data set [1], 85 ± 0.7 µM; in data set [2], 7.8 ± 1 µM; in data set [3], 14.1 ± 3 µM.
With `CC1=C(CCC2CO2)C2=C(C)C3(CC3)[C@@](C)(O)C(=O)C2=C1` (some centres unmarked) [Analog 114], the IC50 in data set [4] was determined as 25.1 ± 1 µM; in data set [1] it was 1.5 ± 0.1 µM; in data set [2], 0.7 ± 0.1 µM; in data set [3], 0.26 ± 0.07 µM.
In the case of `CC1=C(CCC(O)CO)C2=C(C)C3(CC3)[C@@](C)(O)C(=O)C2=C1` (some centres unmarked) [Analog 119], the figures for the IC50 in data set [4] and in data set [2] were > 33 µM and > 10 µM, respectively.
With `CC1=C(CCC=NN=CCCC2=C(C)C=C3C(=O)[C@@](C)(O)C4(CC4)C(C)=C32)C2=C(C)C3(CC3)[C@@](C)(O)C(=O)C2=C1` [Analog 120], the IC50 in data set [4] came to 19.1 ± 4.6 µM; in data set [1], 2.8 ± 0.9 µM; in data set [2], 0.51 ± 0.11 µM; in data set [3], 0.6 ± 0.1 µM.
As for `CC1=C(CCC=NNc2ccc([N+](=O)[O-])cc2[N+](=O)[O-])C2=C(C)C3(CC3)[C@@](C)(O)C(=O)C2=C1` [Analog 125], the IC50 was 15.5 ± 1.4 µM in data set [4], 3.7 ± 0.6 µM in data set [1] and 0.6 ± 0.1 µM in data set [2].
For the compound `CC1=C(CCC(C)O)C2=C(C)C3(CC3)[C@@](C)(O)C(=O)C2=C1` (some centres unmarked) [Analog 128], the IC50 was > 35 µM in data set [4], 0.84 ± 0.23 µM in data set [1], 0.8 ± 0.07 µM in data set [2] and 0.37 ± 0.05 µM in data set [3].
Regarding `CC1=CC2=C(C)C3(CC3)[C@@](C)(O)C(O)C2=C1` (some centres unmarked) [Analog 129], the IC50 in data set [4] is > 136 µM; in data set [1], > 136 µM; in data set [2] it was 39.4 ± 9.2 µM; in data set [3] it was 19.7 ± 1.9 µM.
As for `COC(=O)C1=C(C(=O)OC)C23C=C(C)C1C2=C(C)C1(CC1)[C@@](C)(O)C3=O` (some centres unmarked) [Analog 142], in the data set with NCI 60 cell line panel, the “Activity Value” is −5 and the “MDR Activity” value is “Yes”.
As for `CC(=O)OC[C@]1(C)C=C2C(=O)[C@](C)(O)C3(CC3)C(C)=C2[C@H]1OC(=O)N(C)CCN(C)C(=O)OC(C)(C)C` [Analog 334], in the data set on NCI 60 cell line panel, the “Activity Value” is given as −11 and the “MDR Activity” value is recorded as “Yes”.
As to `CC(=O)O[C@@H]1C2=C(C)C3(CC3)[C@@](C)(O)C(=O)C2=C[C@@]1(C)CO` [Analog 371], in the data set on NCI 60 cell line panel, the “Activity Value” is given as −18 and the “MDR Activity” value is given as “Yes”.
Take `CC1=C2C(=C[C@@](C)(C=O)[C@@H]2O)C(=O)[C@](C)(O)C12CC2` [Analog 383]: in the data set on NCI 60 cell line panel, the “Activity Value” is reported as −1 and the “MDR Activity” value is recorded as “Yes”.
For `CC1=C(CNO)C2=C(C)C3(CC3)[C@@](C)(O)C(=O)C2=C1` [Analog 394], in the data set on NCI 60 cell line panel, the “Activity Value” is −2 and the “MDR Activity” value was “Yes”.
Turning to `COc1cc2cc(c1Cl)N(C)C(=O)C[C@H](OC(=O)[C@H](C)N(C)C(=O)CCS)[C@]1(C)O[C@H]1[C@H](C)[C@@H]1C[C@@](O)(NC(=O)O1)[C@H](OC)/C=C/C=C(\C)C2` [DM1], in the data set on NCI 60 cell line panel, the “Activity Value” was “+8”.
As usually defined, the GI50 is the concentration that inhibits growth by half. Consider `CC[C@H](C)[C@@H]([C@@H](CC(=O)N1CCC[C@H]1[C@H](OC)[C@@H](C)C(=O)N[C@@H](Cc1ccccc1)c1nccs1)OC)N(C)C(=O)[C@@H](NC(=O)[C@H](C(C)C)N(C)C)C(C)C` [Dolstatin-10], for which, in the data set with NCI 60 cell line panel (NCI DTP 60 cell line, mean), the “Mean LD50 cytotoxic” value is >50,000 nM and the “Mean TGI cytostatic” value is given as 2,680 nM. For the same compound, the GI50 in the data set with NCI 60 cell line panel (read-out: Mean GI50 inhibition, NCI DTP 60 cell line, mean) was 0.017 µM.
Consider `C/C(=C\c1csc(C)n1)[C@@H]1C[C@@H]2O[C@@H]2CCC[C@H](C)[C@H](O)[C@@H](C)C(=O)C(C)(C)[C@@H](O)CC(=O)O1` [Epothilone A], for which the “Activity Value” with NCI 60 cell line panel is “+31”.
For `CO[C@@H]1[C@H](O)CC[C@]2(CO2)[C@H]1[C@@]1(C)O[C@@H]1CC=C(C)C` [Fumagillol], in the data set on NCI 60 cell line panel (NCI DTP 60 cell line, mean), the “Mean LD50 cytotoxic” value is >50,000 nM.

Values taken from patent US12269793B2, “Affinity illudofulvene conjugates” (AF Chemicals, LLC, priority 2019, dated 2025).
